Assay results: PMC5697189 (Journal of Veterinary Internal Medicine, 2017)
Read-outs that look alike come from different tables or passages of the source.

Tests used:
[1] = system: recombinant canine GSTT5 (reference); details: co-substrate glutathione (5 mM); pH and temperature not stated
[2] = system: recombinant canine GSTT5 (reference); experiment: spectrophotometric glutathione conjugation assay, Michaelis-Menten fit; format: biochemical, Canis lupus familiaris; details: co-substrate glutathione (5 mM); pH and temperature not stated

O=[N+]([O-])c1ccc(Cl)c(Cl)c1 [1,2-dichloro-4-nitrobenzene, 1,2‐dichloro‐4‐nitrobenzene]
Km [1]: 164 ± 22 µM | Km [2]: 168 ± 27 µM
